Laboratory results from the supplement of paper PMC10307832.

Key:
Test in all cases: relative viability (nuclei count vs DMSO), 5 days (fraction); higher = more cells survive
[1] = tested on: NCI-H2009
Outline: (§1)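 Relative viability equals treated-well nuclei counts divided by vehicle-well nuclei counts. Counts came from 4× images of lung cancer cell lines grown in 1536-well plates for 5 days after pin-tool dosing on the day after seeding. Dosing used one drug alone or a fixed anchor-drug dose plus five library-drug doses (not always all listed) in √10 steps, and values are medians of duplicate plates.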

[2] = tested on: NCI-H647
Outline: as §1

[3] = tested on: NCI-H1648
Outline: as §1

[4] = tested on: A549
Outline: as §1

[5] = tested on: NCI-H2405
Outline: as §1

[6] = tested on: LOU-NH91
Outline: as §1

[7] = tested on: NCI-H1703
Outline: as §1

[8] = tested on: IA-LM
Outline: as §1

[9] = tested on: EBC-1
Outline: as §1

[10] = tested on: Calu-6
Outline: as §1

[11] = tested on: NCI-H1299
Outline: as §1

SMILES: CCNC(=O)c1noc(-c2cc(C(C)C)c(O)cc2O)c1-c1ccc(CN2CCOCC2)cc1 [Luminespib] + Nc1ncn([C@H]2C[C@H](O)[C@@H](CO)O2)c(=O)n1 [Decitabine] (partner 2 µM)
- relative viability ([1]; first compound 0.002 µM): 0.405
- relative viability ([1]; first compound 0.006325 µM): 0.364
- relative viability ([1]; first compound 0.02 µM): 0.368
- relative viability ([1]; first compound 0.06325 µM): 0.187
- relative viability ([1]; first compound 0.2 µM): 0.135
- relative viability ([2]; first compound 0.002 µM): 0.391
- relative viability ([2]; first compound 0.006325 µM): 0.484
- relative viability ([2]; first compound 0.02 µM): 0.18
- relative viability ([2]; first compound 0.06325 µM): 0.0995
- relative viability ([2]; first compound 0.2 µM): 0.124
- relative viability ([3]; first compound 0.002 µM): 0.534
- relative viability ([3]; first compound 0.006325 µM): 0.569
- relative viability ([3]; first compound 0.02 µM): 0.458
- relative viability ([3]; first compound 0.06325 µM): 0.489
- relative viability ([3]; first compound 0.2 µM): 0.301
- relative viability ([4]; first compound 0.002 µM): 0.232
- relative viability ([4]; first compound 0.006325 µM): 0.297
- relative viability ([4]; first compound 0.02 µM): 0.191
- relative viability ([4]; first compound 0.06325 µM): 0.0306
- relative viability ([4]; first compound 0.2 µM): 0.0224
- relative viability ([5]; first compound 0.002 µM): 0.79
- relative viability ([5]; first compound 0.02 µM): 0.627
- relative viability ([5]; first compound 0.06325 µM): 0.297
- relative viability ([5]; first compound 0.2 µM): 0.191
- relative viability ([6]; first compound 0.002 µM): 0.8
- relative viability ([6]; first compound 0.006325 µM): 0.844
- relative viability ([6]; first compound 0.02 µM): 0.686
- relative viability ([6]; first compound 0.06325 µM): 0.382
- relative viability ([6]; first compound 0.2 µM): 0.436

SMILES: CCNC(=O)c1noc(-c2cc(C(C)C)c(O)cc2O)c1-c1ccc(CN2CCOCC2)cc1 [Luminespib] + NC(=O)Nc1cc(-c2cccc(F)c2)sc1C(=O)N[C@H]1CCCNC1 [AZD7762] (partner 0.2 µM)
- relative viability ([2]; first compound 0.002 µM): 0.506
- relative viability ([2]; first compound 0.006325 µM): 0.538
- relative viability ([2]; first compound 0.02 µM): 0.176
- relative viability ([2]; first compound 0.06325 µM): 0.0596
- relative viability ([2]; first compound 0.2 µM): 0.0506
- relative viability ([3]; first compound 0.002 µM): 0.529
- relative viability ([3]; first compound 0.006325 µM): 0.603
- relative viability ([3]; first compound 0.02 µM): 0.875
- relative viability ([3]; first compound 0.06325 µM): 0.702
- relative viability ([3]; first compound 0.2 µM): 0.286
- relative viability ([7]; first compound 0.002 µM): 0.146
- relative viability ([7]; first compound 0.006325 µM): 0.114
- relative viability ([7]; first compound 0.02 µM): 0.149
- relative viability ([7]; first compound 0.06325 µM): 0.115
- relative viability ([7]; first compound 0.2 µM): 0.114
- relative viability ([5]; first compound 0.002 µM): 0.865
- relative viability ([5]; first compound 0.02 µM): 0.711
- relative viability ([5]; first compound 0.06325 µM): 0.167
- relative viability ([5]; first compound 0.2 µM): 0.127
- relative viability ([6]; first compound 0.002 µM): 0.797
- relative viability ([6]; first compound 0.006325 µM): 0.799
- relative viability ([6]; first compound 0.02 µM): 0.66
- relative viability ([6]; first compound 0.06325 µM): 0.322
- relative viability ([6]; first compound 0.2 µM): 0.318

SMILES: CN1CCN(CCOc2cc(OC3CCOCC3)c3c(Nc4c(Cl)ccc5c4OCO5)ncnc3c2)CC1 [Saracatinib] + O=C(CCCCCCC(=O)Nc1ccccc1)NO [Vorinostat] (partner 1 µM)
- relative viability ([1]; first compound 0.02 µM): 0.754
- relative viability ([1]; first compound 0.2 µM): 0.653
- relative viability ([1]; first compound 0.6325 µM): 0.677
- relative viability ([1]; first compound 2 µM): 0.744
- relative viability ([2]; first compound 0.02 µM): 0.612
- relative viability ([2]; first compound 0.2 µM): 0.499
- relative viability ([2]; first compound 0.6325 µM): 0.532
- relative viability ([2]; first compound 2 µM): 0.45
- relative viability ([3]; first compound 0.02 µM): 0.338
- relative viability ([3]; first compound 0.2 µM): 0.352
- relative viability ([3]; first compound 0.6325 µM): 0.782
- relative viability ([3]; first compound 2 µM): 0.433
- relative viability ([5]; first compound 0.02 µM): 0.89
- relative viability ([5]; first compound 0.2 µM): 0.788
- relative viability ([5]; first compound 0.6325 µM): 0.847
- relative viability ([5]; first compound 2 µM): 0.441
- relative viability ([6]; first compound 0.02 µM): 0.87
- relative viability ([6]; first compound 0.2 µM): 0.696
- relative viability ([6]; first compound 0.6325 µM): 0.903
- relative viability ([6]; first compound 2 µM): 0.628
- relative viability ([8]; first compound 0.02 µM): 1.01
- relative viability ([8]; first compound 0.6325 µM): 1.4
- relative viability ([8]; first compound 2 µM): 0.798

SMILES: CN1CCN(CCOc2cc(OC3CCOCC3)c3c(Nc4c(Cl)ccc5c4OCO5)ncnc3c2)CC1 [Saracatinib] + O=C(c1cc(Cc2n[nH]c(=O)c3ccccc23)ccc1F)N1CCN(C(=O)C2CC2)CC1 [Olaparib] (partner 8 µM)
- relative viability ([1]; first compound 0.02 µM): 0.709
- relative viability ([1]; first compound 0.2 µM): 0.477
- relative viability ([1]; first compound 0.6325 µM): 0.688
- relative viability ([1]; first compound 2 µM): 0.724
- relative viability ([9]; first compound 0.02 µM): 0.701
- relative viability ([9]; first compound 0.2 µM): 0.709
- relative viability ([9]; first compound 0.6325 µM): 0.729
- relative viability ([9]; first compound 2 µM): 0.734
- relative viability ([2]; first compound 0.02 µM): 0.574
- relative viability ([2]; first compound 0.2 µM): 0.539
- relative viability ([2]; first compound 0.6325 µM): 0.406
- relative viability ([2]; first compound 2 µM): 0.364
- relative viability ([3]; first compound 0.02 µM): 0.882
- relative viability ([3]; first compound 0.2 µM): 0.678
- relative viability ([3]; first compound 0.6325 µM): 1.75
- relative viability ([3]; first compound 2 µM): 0.417
- relative viability ([7]; first compound 0.02 µM): 0.425
- relative viability ([7]; first compound 0.2 µM): 0.393
- relative viability ([7]; first compound 0.6325 µM): 0.172
- relative viability ([7]; first compound 2 µM): 0.158
- relative viability ([4]; first compound 0.02 µM): 0.338
- relative viability ([4]; first compound 0.2 µM): 0.174
- relative viability ([4]; first compound 0.6325 µM): 0.341
- relative viability ([4]; first compound 2 µM): 0.305
- relative viability ([5]; first compound 0.02 µM): 0.873
- relative viability ([5]; first compound 0.2 µM): 0.84
- relative viability ([5]; first compound 0.6325 µM): 0.673
- relative viability ([5]; first compound 2 µM): 0.595
- relative viability ([10]; first compound 0.02 µM): 0.53
- relative viability ([10]; first compound 0.2 µM): 0.51
- relative viability ([10]; first compound 0.6325 µM): 0.529
- relative viability ([10]; first compound 2 µM): 0.449
- relative viability ([11]; first compound 0.02 µM): 0.923
- relative viability ([11]; first compound 0.2 µM): 0.952
- relative viability ([11]; first compound 0.6325 µM): 1.12
- relative viability ([11]; first compound 2 µM): 0.92
- relative viability ([6]; first compound 0.02 µM): 0.862
- relative viability ([6]; first compound 0.2 µM): 0.711
- relative viability ([6]; first compound 0.6325 µM): 0.73
- relative viability ([6]; first compound 2 µM): 0.613
- relative viability ([8]; first compound 0.02 µM): 0.856
- relative viability ([8]; first compound 0.2 µM): 0.884
- relative viability ([8]; first compound 0.6325 µM): 1.06
- relative viability ([8]; first compound 2 µM): 0.76
